Results reported in patent US20070027181A1, “Benzylisoquinoline derivative- or bisbenzylisoquinoline derivative-containing psychotropic agent, analgesic and/or antiphlogistic, and health food” (EDUCATION CENTER OF TRADITIONAL, priority 2004, published 2007).

Tests used:
mice [1] = assay: locomotor activity (ultromotivity) test, evaluation of sedative action; assay type: in vivo, Male ICR mice
Method: (§1) In the following Examples, all extracts and drugs used were dissolved in physiological saline before use for i.p. administration and the dose was 0.1 ml of physiological saline per 10 g of mouse body weight in either case. All extracts and drugs were suspended in physiological saline containing 1% sodium carboxymethylcellulose before use for oral administration and the dose was 0.1 ml of 1% sodium carboxymethylcellulose-containing physiological saline suspension per 10 g of mouse body weight in either case. Male ICR mice (Japan SLC) having a body weight of 25 to 30 g were used in the tests below unless otherwise stated, and were fed in advance at a room temperature of 23±1° C. and a relative humidity of 55±5% in the environment of a cycle of 12-hour-light from 7 a.m. to 7 p.m. and 12-hour-dark from 7 p.m. to 7 a.m. for 3 to 5 days. The mice were allowed to have water and feed freely.
Twenty five mice were grouped into five groups each having five mice, to which 5 mg/kg of N-methylcoclaurine hydrochloride (treatment group 1-1: i.p. administration), 50 mg/kg of neferine hydrochloride (treatment group 1-2: oral administration, and treatment group 1-3: i.p. administration), 50 mg/kg of liensinine hydrochloride (treatment group 1-4: oral administration), or physiological saline (negative control group 1-1: i.p. administration) was administered. The ultromotivity of the mice was analyzed by using a locomotor activity monitoring system (NS-AS01, Neuroscience Inc.). The ultromotivity measurements were performed at an interval of 5 minutes for 60 minutes, and the ultromotivity was judged from the count at each measuring time.
Similar tests were conducted by i.p. administration of 25 mg/kg of N-norarmepavine (treatment group 1-5, n=6), 25 mg/kg of O,O-dimethylcoclaurine (treatment group 1-6, n=5), 10 mg and 25 mg/kg of armepavine (respectively, treatment group 1-7, n=6, and treatment group 1-8, n=6), 10 mg and 25 mg/kg of O-methylarmepavine (respectively, treatment group 1-9, n=6, and treatment group 1-10, n=6), and physiological saline (negative control group 1-2, n=5). The ultromotivity measurements were performed at an interval of five minutes for 60 minutes, and the ultromotivity was subjected to a significant difference test (Tukey's method) by using the counts at respective measuring times.
Tests were performed by using mice administered intraperitoneally with 25 mg/kg of neferine hydrochloride (treatment group 7-1, n=6), 25 mg/kg of liensinine hydrochloride (treatment group 7-2, n=6), and physiological saline (negative control group, n=6) as well as 5 mg/kg of diazepam (positive control group, n=6) and a rotarod equipment (Ugo Basile, Italy) and a locomotor activity monitoring system (NS-AS01, Neuroscience Inc.). The rotarod test was performed by placing a mouse on a rod having a diameter of 4 cm rotating at a speed of 8 rpm 15 minutes after drug administration and observing whether the mouse can stay on the rod without falling for three minutes. The individuals that had fallen from the rotating rod in the period of 3 minutes were judged that they are with motor coordination disorder. […] In addition, the ultromotivity measurements were performed at an interval of five minutes for 60 minutes, and the ultromotivity results were subjected to a significant difference test (Tukey's method) by using the counts at respective measuring times.

mice [2] = assay: glass ball-covering behavior test (obsessive compulsive disorders); assay type: in vivo, Male ICR mice
Method: as §1
In evaluating glass ball-covering behavior, wood chip for breeding (beta chip) (Oriental Yeast Co., Ltd.) was placed in the transparent cage described in Example 3 to a depth of 5 cm, on which 20 glass balls (diameter: 1.5 cm) were placed evenly.
Twenty-one mice were grouped into three groups each of seven mice, to which 25 mg/kg of neferine hydrochloride (treatment group 6-1), 50 mg/kg of the same (treatment group 6-2), and physiological saline (negative control group) were administered intraperitoneally, respectively. A mouse was placed in the cage 15 minutes after administration, and the number of the glass balls not covered with the wood chip was counted by visual observation at an interval of 10 minutes. The number of balls having ⅔ or more of the surface thereof being embedded in the wood chip when the cage was observed from above was counted as the criteria for judgment.

COc1ccc(C[C@@H]2c3cc(Oc4cc(C[C@@H]5c6cc(OC)c(OC)cc6CCN5C)ccc4O)c(OC)cc3CCN2C)cc1 [neferine]
Significant difference test of ultromotivity (mice [1]; 25 mg/kg i.p., Tukey's method, 60 minutes): P < 0.01
Ultromotivity (count) 30 minutes (mice [1]; 50 mg/kg i.p.): 500 count
Ultromotivity (count) 60 minutes (mice [1]; 50 mg/kg i.p., 60 minutes): 760 count
Ultromotivity (count) 30 minutes (mice [1]; 50 mg/kg oral): 500 count
Ultromotivity (count) 60 minutes (mice [1]; 50 mg/kg oral, 60 minutes): 750 count
Number of glass balls covered with wood chip After 20 minutes (mice [2]; 25 mg/kg i.p.): 7
Number of glass balls covered with wood chip After 30 minutes (mice [2]; 25 mg/kg i.p.): 10
Number of glass balls covered with wood chip After 10 minutes (mice [2]; 25 mg/kg i.p., placed in cage 15 minutes after administration): 4
Number of glass balls covered with wood chip After 10 minutes (mice [2]; 50 mg/kg i.p.): 3
Number of glass balls covered with wood chip After 20 minutes (mice [2]; 50 mg/kg i.p.): 6
Number of glass balls covered with wood chip After 30 minutes (mice [2]; 50 mg/kg i.p.): 9
